Experiment [1] deals with T1, β-glucosidase in Sechium edule (Sebg; chayotase).
T1 construct: native purification from fruit pulp (epicarp and mesocarp); homodimer 116 kDa, 58 kDa subunits; tryptic peptides MGFDAYR, FSIAWSR, WFENFLK, DFSEVCFK, EAMQAGVRVK, FGLTYIDYK, NNLK
The experiment can be described thus: p-nitrophenol release, […] nm; Michaelis-Menten nonlinear fit. The format is biochemical. The conditions noted are these: standard assay: sodium citrate 0.2 M, pH 5.0, 25 °C.

Experiment [2] addresses β-glucosidase from chayote (Sechium edule) (Sechium edule). The experiment can be described thus: native gel or EMSA; native PAGE on 5%, 7.5%, 10% and 12.5% polyacrylamide gels, pH 8.3, Hedrick and Smith method; native mass 116 kDa compared with the 58 kDa subunit on SDS-PAGE. In general terms: Mobility shift assays separate free from complexed probe on a gel.

Broadly, the Km is the concentration of substrate that gives half-maximal velocity. Regarding `O=[N+]([O-])c1ccc(O[C@@H]2O[C@H](CO)[C@@H](O)[C@H](O)[C@H]2O)cc1` [p-nitrophenyl-β-D-glucopyranoside], in experiment [1], the Km was 4.88 mM.

In general, stoichiometry N refers to the number of molecules, sites or subunits per partner or assembly. For “β-glucosidase from chayote (Sechium edule) (enzyme)”, the stoichiometry N in experiment [2] is 2.

Source of the values: paper PMC6332095, “Purification and Partial Characterization of β-Glucosidase in Chayote (Sechium edule)” (Molecules, 2015).
